Measured values taken from patent US10239843B2 (CANCER RESEARCH TECHNOLOGY LIMITED, priority 2014, dated 2019).
Where two headings read alike, the source gives them in different places.

Legend:
[1] = test system: PARG in HeLa cell line; assay: PARG cell assay (PAR chain immunofluorescence after MMS); format: cell-based; conditions: HeLa cells
How it was run: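 HeLa cells were dosed with compound for 1 h, then given MMS at 50 μg/mL final for a further hour. Cells were methanol-fixed, permeabilised and stained overnight at 4° C with anti-PAR monoclonal antibody. Retained nuclear PAR chains, detected by indirect immunofluorescence, indicate PARG inhibition.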

[2] = biological target: Human Full Length PARG (Homo sapiens (Human), UniProt Q86W56); assay: PARG enzyme assay (TR-FRET); format: biochemical
Chain of Human Full Length PARG (Q86W56 whole entry): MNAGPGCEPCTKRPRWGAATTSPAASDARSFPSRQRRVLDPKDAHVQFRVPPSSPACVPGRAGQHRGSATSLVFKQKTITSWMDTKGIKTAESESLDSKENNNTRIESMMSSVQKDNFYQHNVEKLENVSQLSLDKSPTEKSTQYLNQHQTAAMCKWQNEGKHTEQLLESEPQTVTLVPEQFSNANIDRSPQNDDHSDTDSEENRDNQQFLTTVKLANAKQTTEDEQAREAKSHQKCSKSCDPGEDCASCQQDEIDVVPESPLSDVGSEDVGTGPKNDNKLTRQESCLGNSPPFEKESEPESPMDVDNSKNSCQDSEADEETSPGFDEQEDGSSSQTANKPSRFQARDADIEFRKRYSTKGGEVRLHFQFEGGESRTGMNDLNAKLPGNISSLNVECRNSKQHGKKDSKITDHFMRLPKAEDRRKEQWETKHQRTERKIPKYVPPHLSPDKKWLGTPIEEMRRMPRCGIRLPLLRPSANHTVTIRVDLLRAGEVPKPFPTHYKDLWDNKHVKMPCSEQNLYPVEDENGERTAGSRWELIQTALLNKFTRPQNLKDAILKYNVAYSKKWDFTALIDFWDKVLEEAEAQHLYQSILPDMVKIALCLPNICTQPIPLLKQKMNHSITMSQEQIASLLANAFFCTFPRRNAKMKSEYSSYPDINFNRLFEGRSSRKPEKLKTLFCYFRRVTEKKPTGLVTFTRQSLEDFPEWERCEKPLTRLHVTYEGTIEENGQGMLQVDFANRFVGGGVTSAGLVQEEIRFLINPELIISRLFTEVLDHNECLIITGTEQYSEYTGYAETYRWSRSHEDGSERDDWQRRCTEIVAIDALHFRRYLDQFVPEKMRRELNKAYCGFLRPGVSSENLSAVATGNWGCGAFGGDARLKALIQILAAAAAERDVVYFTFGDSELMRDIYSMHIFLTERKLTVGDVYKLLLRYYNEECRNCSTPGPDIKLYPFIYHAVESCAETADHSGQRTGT

[3] = Homo sapiens, MMS 50 μg/mL, read-out: PARG Cell IC50 Geomean
[4] = read-out: PARG Biochem IC50 Geomean
[5] = Homo sapiens, MMS treatment, read-out: PARG Cell IC50
[6] = MMS treatment, read-out: PARG Cell IC50

IC50 [1, 3] [nM]	IC50 [2, 4] [nM]	IC50 [1, 5] [nM]	IC50 ([2]; read-out: PARG Biochem IC50) [nM]	SMILES	also measured
–	–	32	30	Cc1cc(Cn2c(=O)n(Cc3cnn(C)c3)c(=O)c3cc(S(=O)(=O)NC4(CF)CC4)ccc32)sn1 [Example 591, N-[1-(Fluoromethyl)cyclopropyl]-1-[(3-methylisothiazol-5-yl)methyl]-3-[(1-methylpyrazol-4-yl)methyl]-2,4-dioxo-quinazoline-6-sulfonamide]	–
–	–	266	546	CCC(CC)Cn1c(=O)n(Cc2cc(C)no2)c(=O)c2cc(S(=O)(=O)NC3(C)CC3)ccc21 [Example 470, 1-(2-Ethylbutyl)-N-(1-methylcyclopropyl)-3-[(3-methylisoxazol-5-yl)methyl]-2,4-dioxo-quinazoline-6-sulfonamide]	–
–	–	–	68	C#CCn1c(=O)n(Cc2cnn(C)c2)c(=O)c2cc(S(=O)(=O)NC3(CF)CC3)ccc21 [Example 440, N-[1-(Fluoromethyl)cyclopropyl]-3-[(1-methylpyrazol-4-yl)methyl]-2,4-dioxo-1-prop-2-ynyl-quinazoline-6-sulfonamide]	IC50 [1, 6]: 50 nM
–	–	–	196	Cc1cc(Cn2c(=O)c3cc(S(=O)(=O)NC4(C)CC4)ccc3n(Cc3cnn(C(C)C)c3)c2=O)on1 [Example 473, 1-[(1-Isopropylpyrazol-4-yl)methyl]-N-(1-methylcyclopropyl)-3-[(3-methylisoxazol-5-yl)methyl]-2,4-dioxo-quinazoline-6-sulfonamide]	IC50 [1, 6]: 144 nM
–	–	–	274	CC[C@H](C)Cn1c(=O)n(Cc2cc(C)no2)c(=O)c2cc(S(=O)(=O)NC3(C)CC3)ccc21 [Example 466, 1-[(2S)-2-Methylbutyl]-N-(1-methylcyclopropyl)-3-[(3-methylisoxazol-5-yl)methyl]-2,4-dioxo-quinazoline-6-sulfonamide]	IC50 [1, 6]: 232 nM
–	–	167	71	Cc1ccc(Cn2c(=O)n(Cc3cnn(C)c3)c(=O)c3cc(S(=O)(=O)NC4(CF)CC4)ccc32)cn1 [Example 573, N-[1-(Fluoromethyl)cyclopropyl]-3-[(1-methylpyrazol-4-yl)methyl]-1-[(6-methyl-3-pyridyl)methyl]-2,4-dioxo-quinazoline-6-sulfonamide]	–
–	–	558	156	Cn1cc(Cn2c(=O)c3cc(S(=O)(=O)NC4(CF)CC4)ccc3n(Cc3nccn3C)c2=O)cn1 [Example 565, N-[1-(Fluoromethyl)cyclopropyl]-1-[(1-methylimidazol-2-yl)methyl]-3-[(1-methylpyrazol-4-yl)methyl]-2,4-dioxo-quinazoline-6-sulfonamide]	–
–	–	84	106	CCn1c(=O)n(Cc2cnn(C)c2)c(=O)c2cc(S(=O)(=O)NC3(CF)CC3)ccc21 [Example 438, 1-Ethyl-N-[1-(fluoromethyl)cyclopropyl]-3-[(1-methylpyrazol-4-yl)methyl]-2,4-dioxo-quinazoline-6-sulfonamide]	–
–	–	188	283	Cc1cc(Cn2c(=O)c3cc(S(=O)(=O)NC4(C)CC4)ccc3n(CC(C)(C)C)c2=O)on1 [Example 465, 1-(2,2-Dimethylpropyl)-N-(1-methylcyclopropyl)-3-[(3-methylisoxazol-5-yl)methyl]-2,4-dioxo-quinazoline-6-sulfonamide]	–
–	–	2160	42	CCn1cncc1Cn1c(=O)n(Cc2cnn(C)c2)c(=O)c2cc(S(=O)(=O)NC3(CF)CC3)ccc21 [Example 576, 1-[(3-Ethylimidazol-4-yl)methyl]-N-[1-(fluoromethyl)cyclopropyl]-3-[(1-methylpyrazol-4-yl)methyl]-2,4-dioxo-quinazoline-6-sulfonamide]	–
–	–	248	1470	Cn1cc(Cn2c(=O)c3cc(S(=O)(=O)NC4(C)CC4)ccc3n(C(F)F)c2=O)cn1 [Example 606, 1-(Difluoromethyl)-N-(1-methylcyclopropyl)-3-[(1-methylpyrazol-4-yl)methyl]-2,4-dioxo-quinazoline-6-sulfonamide]	–

The next lines start with the compound.

SMILES	IC50 [1, 3] [nM]	IC50 [2, 4] [nM]	IC50 [1, 5] [nM]	IC50 ([2]; read-out: PARG Biochem IC50) [nM]	also measured
CN1CCC(Cn2c(=O)n(Cc3cnn(C)c3)c(=O)c3cc(S(=O)(=O)NC4(C)CC4)ccc32)CC1 [Example 372]	2140	146	–	–	–
Cc1cc(Cn2c(=O)c3cc(S(=O)(=O)NC4(C)CC4)ccc3n(CC3COC3)c2=O)on1 [Example 305]	–	340	–	–	IC50 ([1]; MMS 50 μg/mL, read-out: PARG Cell IC50 Geomean): 323 nM
Cc1cc(Cn2c(=O)c3cc(S(=O)(=O)NC4(C#N)CC4)ccc3n(C)c2=O)on1 [Example 229]	1470	446	–	–	–
Cc1cc(Cn2c(=O)c3cc(S(=O)(=O)NC4(C)CC4)ccc3n(CCN(C)C)c2=O)on1 [Example 246]	431	469	–	–	–
Cc1cc(Cn2c(=O)c3cc(S(=O)(=O)NC4(C)CC4)ccc3n(CC3CCO3)c2=O)on1 (centres unmarked) [Example 349]	632	252	–	–	–
COC(C)(C)Cn1c(=O)n(Cc2cc(C)no2)c(=O)c2cc(S(=O)(=O)NC3(C)CC3)ccc21 [Example 413, 1-(2-Methoxy-2-methyl-propyl)-N-(1-methylcyclopropyl)-3-[(3-methylisoxazol-5-yl)methyl]-2,4-dioxo-quinazoline-6-sulfonamide]	–	–	305	469	–
Cc1cc(Cn2c(=O)c3cc(S(=O)(=O)NC4(C)CC4)ccc3n(Cc3cnn(C)c3)c2=O)on1 [Example 330]	164	96	–	–	–
Cc1cc(Cn2c(=O)c3cc(S(=O)(=O)NC4(C)CC4)ccc3n(CC3CCSCC3)c2=O)on1 [Example 381]	208	126	–	–	–
Cn1cc(Cn2c(=O)c3cc(S(=O)(=O)NC4(C#N)CC4)ccc3n(Cc3ccc(F)cc3)c2=O)cn1 [Example 358]	346	59	–	–	–
Cc1ncc(Cn2c(OCC3CC3)nc3ccc(S(=O)(=O)NC4(C)CC4)cc3c2=O)s1 [Example 157]	138	302	–	–	–
C#CCn1c(=O)n(Cc2cnc(C)s2)c(=O)c2cc(S(=O)(=O)NC3(C#N)CC3)ccc21 [Example 403, N-(1-Cyanocyclopropyl)-3-[(2-methylthiazol-5-yl)methyl]-2,4-dioxo-1-prop-2-ynyl-quinazoline-6-sulfonamide]	–	–	–	84	IC50 [1, 6]: 265 nM
Cc1cc(Cn2c(=O)n(C)c(=O)c3cc(S(=O)(=O)NC4(C)CC4)ccc32)n(C)n1 [Example 127]	413	384	–	–	–
Cn1cc(Cn2c(=O)c3cc(S(=O)(=O)NC4(C#N)CC4)ccc3n(C)c2=O)cn1 [Example 344]	2110	491	–	–	–
Cc1cc(Cn2c(=O)c3cc(S(=O)(=O)NC4(C)CC4)ccc3n(CC3CCCCN3C)c2=O)on1 (centres unmarked) [Example 275]	304	333	–	–	–
Cn1cc(Cn2c(=O)c3cc(S(=O)(=O)NC4(C)CC4)ccc3n(CC3CCCC3)c2=O)cn1 [Example 279]	51	168	–	–	–
Cc1cc(Cn2c(=O)n(Cc3cnn(C)c3)c(=O)c3cc(S(=O)(=O)NC4(C#N)CC4)ccc32)n(C)n1 [Example 345]	2880	61	–	–	–
C#CC1(NS(=O)(=O)c2ccc3[nH]c(=O)n(Cc4cnn(C)c4)c(=O)c3c2)CC1 [Example 431, N-(1-Ethynylcyclopropyl)-3-[(1-methylpyrazol-4-yl)methyl]-2,4-dioxo-1H-quinazoline-6-sulfonamide]	–	–	–	3720	IC50 [1, 6]: 3030 nM
